Patent US8236354B1, “Use of immunomodulators for the treatment of cancer” (ZOR Pharmaceuticals, LLC, priority 2012, dated 2012)

Columns and labels:
[1] = tested on: advanced pancreatic cancer; details: survival from study enrollment to death from any cause; cited from earlier work
[2] = tested on: advanced (unresectable or metastatic) pancreatic adenocarcinoma; experiment: Phase 3 double-blind, randomized, placebo-controlled 3-stage trial: survival and time to symptom progression; assay type: in vivo, human; details: for Median survival time from entry into study Stage 3 to death from any cause: Intention to Treat, Stage 3 test product plus 5-FU
Experimental: This was a double-blind, multicenter, randomized, 2-arm, parallel group, 3-stage trial. Median survival was the primary end-point calculated from Kaplan-Meier plots of survival of the Intention to Treat data set.
The blood pharmacokinetic profiles of gemcitabine and VIRULIZIN® were assessed by an independent (unblinded) pharmacokinetics assessor. Stage 1 was performed at selected sites. Immune stimulation assays were also to be performed in these patients.
The decision to discontinue patients from Stage 2 and move them into Stage 3 and to continue or discontinue study treatment was at the discretion of the investigator.
However, if the investigator believed further chemotherapy was not in the best interest of the patient (based on hematological profile, symptom progression or no evidence of clinical benefit), the patient continued to receive best supportive care, with or without continued injections of VIRULIZIN® or placebo. The first 18 patients entering Stage 3 and receiving VIRULIZIN® or placebo plus intravenous infusions of 5-FU were to have blood samples taken to assess the pre- and post-dose plasma concentrations of 5-FU.
Male or female patients, aged 18 years or older, with advanced (unresectable or metastatic) pancreatic adenocarcinoma (tumor staging definition—tumor, lymph nodes, metastasis [TNM] stages II, III or IV) who had not received previous systemic chemotherapy, who had Eastern Cooperative Oncology Group (ECOG) Score 0, 1 or 2, and life expectancy greater than or equal to 12 weeks were included in the study.
VIRULIZIN® or placebo was administered as intramuscular injections of 3 mL with dosing 3 times weekly (Monday, Wednesday, Friday) in Stages 1, 2 and 3.
Following pain stabilization screening, all randomized patients in Stages 1 and 2 received 30-minute intravenous infusions of gemcitabine at a dose of 1 g/m2 weekly for the first 7 weeks, followed by a week of rest. Subsequent cycles consisted of 28-day cycles with gemcitabine dosing on days 1, 8 and 15. Guidelines for dose reduction in case of toxicity were provided from the Official Product Prescribing Guidelines. Dosing continued until intolerance to gemcitabine developed, or there was symptom progression, or no evidence of clinical benefit. […] The patient's physician made the decision concerning 5-FU chemotherapy or best supportive care.
Efficacy was evaluated based upon survival time, defined as the time from Baseline/Treatment Day 1 to the time of death from any cause. Time to progression of symptoms, consisting of: time to increase in pain (with consideration of analgesic consumption), time to deterioration in ECOG score, and time to weight loss.

[3] = ECOG 0 or 1, treated in Stage 3, of 25 (VIRULIZIN plus 5-FU) / of 16 (placebo plus 5-FU) patients

Structure (SMILES): O=c1[nH]cc(F)c(=O)[nH]1 [5-FU, 5-fluorouracil]
- median Overall Survival [1]: 4.2 months

Structure (SMILES): O=c1[nH]cc(F)c(=O)[nH]1 [Placebo plus 5-FU, 5-fluorouracil]
- number of patients alive (censored) at the end of the study data collection period [2, 3]: None
- percent of patients alive (censored) at the end of the study data collection period [2, 3]: 0%
- Median survival time from entry into study Stage 3 to death from any cause ([2]; ECOG 0 or 1): 2.94 months
- Median survival time from entry into study Stage 3 to death from any cause ([2]; ECOG 2): 3.42 months
- Median survival time from entry into study Stage 3 to death from any cause ([2]; ECOG 2, listed as placebo plus 5-FU): 3.43 months
- Median survival time from entry into study Stage 3 to death from any cause ([2]; Overall): 3.22 months
